Data: patent publication US20170055529A1, “BROAD SPECTRUM WEED CONTROL IN FLOODED RICE BY IN-WATER APPLICATION OF AUXIN HERBICIDES” (priority 2015, published 2017)
Where two headings read alike, the source gives them in different places.

Key:
Assay type in all cases: in vivo
[1] = test system: SCPJU = Schoenoplectus juncoides (Japanese bulrush); assay: Greenhouse in-water herbicidal activity (small pots); conditions: 35 g ae/ha (as headed) in-water
Excerpt: (§1) Weed seeds of the desired test plant species were planted in puddled soil (mud) prepared by mixing a non-sterilized mineral soil (approximately 50 percent silt, 26 percent clay, and 24 percent sand, with a pH of about 7.6 and an organic matter content of about 2.9 percent) and water at a 1:1 volumetric ratio. The prepared mud was dispensed in 365 milliliter (mL) aliquots into 16-ounce (oz.) non-perforated plastic pots with a surface area of 86.59 square centimeters (cm^2) leaving a headspace of 3 centimeters (cm) in each pot. Mud was allowed to dry overnight prior to planting or transplanting. Rice seeds were planted in Sun Gro® MetroMix® 360 planting mixture, which typically has a pH of 6.0 to 6.8 and an organic matter content of about 30 percent, in plastic plug trays. Seedlings at the second or third leaf stage of growth were transplanted into 840 mL of mud contained in 32-oz. non-perforated plastic pots with a surface area of 86.59 cm^2 four days prior to herbicide application. The paddy was created by filling the headspace of the pots with 2.5 to 3 cm of water. When required to ensure good germination and healthy plants, a fungicide treatment and/or other chemical or physical treatment was applied. The plants were grown for 4-22 days (d) in a greenhouse with an approximate 14-hour (h) photoperiod which was maintained at about 29° C. during the day and 26° C. during the night. Nutrients were added as Osmocote® (19:6:12, Nitrogen:Phosphorus:Potassium (N:P:K)+minor nutrients) at 2 g per 16 oz. pot and 4 g per 32 oz. pot. Water was added on a regular basis to maintain the paddy flood, and supplemental lighting was provided with overhead metal halide 1000-Watt lamps as necessary. The plants were used for testing when they reached the second or third true leaf stage.
(§2) Triclopyr triethylammonium (as Grandstand® R, 359.5 grams acid equivalent per liter (g ae/L)); fluroxypyr methylheptyl ester (meptyl or MHE, as Starane™, 179.8 g ae/L); 2,4-dichlorophenoxyacetic acid dimethylammonium (2,4-D DMA, as Weedar® 64, 455.4 g ae/L); and penoxsulam (as Grasp® SC, 239.7 grams active ingredient per liter (g ai/L) were used. Measured amounts of formulated compounds were placed in individual 120 mL glass vials and were dissolved in 40 mL of an aqueous mixture containing 1.25% volume per volume (v/v) Agri-Dex® crop oil concentrate. Generally, multiple concentrations were tested utilizing the same stock solution. Applications were made by injecting an appropriate amount of the application solution into the aqueous layer of the paddy. Control plants were treated in the same manner with the solvent blank.
(§3) The treated plants and control plants were placed in a greenhouse as described above and water was added as needed to maintain a paddy flood. After approximately 3 weeks the condition of the test plants, compared with that of the untreated plants, was determined visually and scored on a scale of 0 to 100 percent where 0 corresponds to no injury or growth reduction and 100 corresponds to complete kill.

[2] = test system: CYDPI = Cyperus difformis (small-flower flatsedge); assay: as above; conditions: 35 g ae/ha (as headed) in-water
Excerpt: as §1, §2, §3

[3] = test system: MOOVA = Monochoria vaginalis (monochoria); assay: as above; conditions: 35 g ae/ha (as headed) in-water
Excerpt: as §1, §2, §3

[4] = test system: ECHCG = Echinochloa crus-galli (barnyardgrass); assay: as above; conditions: 35 g ae/ha (as headed) in-water
Excerpt: as §1, §2, §3

[5] = test system: CYPDI = Cyperus difformis (small-flower flatsedge); assay: Greenhouse in-water herbicidal activity (large pots); conditions: Cyperus difformis, 744 h, read-out: Percent (%) Visual Injury Ratings - 31 DAA, CYPDI
Experimental: (§4) Weed seeds or nutlets of the desired test plant species were planted in puddled soil (mud) prepared by mixing shredded topsoil and deionized (DI) water in a 1:1 ratio in a standard cement mixer. […] Osmocote® (17:6:10 N:P:K; 0.5 teaspoon) was added to the bottom of a container. The container is a high-density polyethylene (HDPE) round container (4.163 L (1.1 gallon), 15 cm high×20.55 cm diameter; for treatment purposes, the surface area is calculated as 331 cm^2 with 1 hectare equivalent to 10^8 cm^2). The mud mixture (2,750 mL) was added to the container filling it half full. Stakes were placed horizontally in each container to create separate areas for which to plant each different plant species. Water was added on a regular basis to maintain the paddy flood, and supplemental lighting was provided with overhead metal halide 1000-Watt lamps as necessary.
(§5) Once the plants had reached the proper size (the growth stage of the various species ranged from 2 to 4 leaves), the containers were flooded with city water to a depth of 3 cm submerging the plants 80-100%. The outside of each container was measured and marked at a 3-cm line with a black permanent marker to eliminate water level variability during the trial period. Water was added daily to maintain this water depth. Triclopyr triethylammonium (as Garlon® 3 A, 360 g ae/L); triclopyr butoxyethyl ester (as Garlon® 4, 480 g ae/L); fluroxypyr methylheptyl ester (meptyl or MHE, as Starane® Ultra, 333 g ae/L); fluroxypyr acid (850 grams acid equivalent per kilogram (g ae/kg)); 2,4-dichlorophenoxyacetic acid dimethylammonium (2,4-D DMA, as Weedar® 64 EC, 456 g ae/L); 2,4-dichlorophenoxyacetic acid 2-ethylhexyl ester (2,4-D 2-EHE, as Agri Star®, 456 g ae/L); clopyralid olamine (as Stinger®, 360 g ae/L); and penoxsulam (as Grasp® SC, 240 g ai/L) were used. Each herbicide treatment for each pot was mixed in water (80 mL) and applied directly into the paddy water at rates adjusted to the surface area. The dry formulations were pre-weighed based on the rate of the active ingredient to be applied on a per unit area basis, placed in 30 mL vials, and capped. Granules were spread onto the top of the water in each pot and dispersed throughout the water. Treatments were replicated 3 times.
(§6) The treated plants and control plants were placed in a greenhouse as described above and water was added as needed to maintain a flood depth of 3 cm. […]

[6] = test system: MOOVA = Monochoria vaginalis (monochoria); assay: as above; conditions: Pontederia vaginalis, 744 h, read-out: Percent (%) Visual Injury Ratings - 31 DAA, MOOVA
Experimental: as §4, §5, §6

[7] = test system: ECHCG = Echinochloa crus-galli (barnyardgrass); assay: as above; conditions: 744 h, read-out: Percent (%) Visual Injury Ratings - 31 DAA, ECHCG
Experimental: as §4, §5, §6

[8] = test system: ORYSP = Oryza sativa (transplanted paddy rice); assay: Greenhouse in-water application (large pots), crop injury
Experimental: as §4, §5, §6

[9] = test system: barnyardgrass (Echinochloa crus-galli), small-flower flatsedge (Cyperus difformis), Japanese bulrush (Schoenoplectus juncoides) and monochoria (Monochoria …); assay: In-water application, weed efficacy (summary statement); conditions: application rate of about 35 to about 280 g ae/ha
rice = assay: In-water application, crop safety (summary statement)
[10] = 35 g ai/ha in-water, greenhouse large pots, 31 DAA
[11] = 280 g ae/ha in-water, greenhouse large pots, 31 DAA
[12] = 560 g ae/ha in-water, greenhouse large pots, 31 DAA
[13] = 1120 g ae/ha in-water, greenhouse large pots, 31 DAA
[14] = application rates of less than or equal to 280 g ae/ha

COc1cnc(OC)n2nc(NS(=O)(=O)c3c(OCC(F)F)cccc3C(F)(F)F)nc12 [Penoxsulam (Grasp ® SC), penoxsulam]
Percent (%) Visual Injury Ratings - 20 DAA, SCPJU [1]: 100%
Percent (%) Visual Injury Ratings - 20 DAA, CYDPI [2]: 100%
Percent (%) Visual Injury Ratings - 20 DAA, MOOVA [3]: 99%
Percent (%) Visual Injury Ratings - 20 DAA, ECHCG [4]: 99%
pest or weed control at 35 g/ha [5, 10]: 99%
pest or weed control at 35 g/ha [6, 10]: 100%
pest or weed control at 35 g/ha [7, 10]: 100%

CCCCOCCOC(=O)COc1nc(Cl)c(Cl)cc1Cl [Triclopyr butoxyethyl ester (Garlon ® 4), 2-butoxyethyl 2[(3,5,6-trichloro-2-pyridinyl)oxy]acetate]
Percent (%) Visual Injury Ratings - 31 DAA, ORYSP ([8]; 280 g ae/ha in-water): 3%
Percent (%) Visual Injury Ratings - 31 DAA, ORYSP ([8]; 560 g ae/ha in-water): 22%
Percent (%) Visual Injury Ratings - 31 DAA, ORYSP ([8]; 1120 g ae/ha in-water): 72%
pest or weed control at 280 g/ha [5, 11]: 100%
pest or weed control at 560 g/ha [5, 12]: 100%
pest or weed control at 1120 g/ha [5, 13]: 100%
pest or weed control at 280 g/ha [6, 11]: 100%
pest or weed control at 560 g/ha [6, 12]: 100%
pest or weed control at 1120 g/ha [6, 13]: 100%
pest or weed control at 280 g/ha [7, 11]: 60%
pest or weed control at 560 g/ha [7, 12]: 78%
pest or weed control at 1120 g/ha [7, 13]: 95%

CCCCC(CC)COC(=O)COc1ccc(Cl)cc1Cl (stereo not shown) [2,4-D 2-ethylhexyl ester (Agri Star ®)]
pest or weed control at 280 g/ha [5, 11]: 100%
pest or weed control at 560 g/ha [5, 12]: 100%
pest or weed control at 1120 g/ha [5, 13]: 100%
pest or weed control at 280 g/ha [6, 11]: 100%
pest or weed control at 560 g/ha [6, 12]: 100%
pest or weed control at 1120 g/ha [6, 13]: 100%
pest or weed control at 280 g/ha [7, 11]: 35%
pest or weed control at 560 g/ha [7, 12]: 65%
pest or weed control at 1120 g/ha [7, 13]: 87%

O=C(O)COc1ccc(Cl)cc1Cl [2,4-D, (2,4-dichlorophenoxy)acetic acid]
efficacy on several commercially relevant weeds [9]: highly efficacious
crop safety exhibited by rice (rice; [14]): little to no crop injury

O=C(O)c1nc(Cl)ccc1Cl [Clopyralid olamine (Stinger ®), 2-hydroxyethanaminium 3,6-dichloro-2-pyridinecarboxylate]
Percent (%) Visual Injury Ratings - 31 DAA, ORYSP ([8]; 280 g ae/ha in-water): 0%
Percent (%) Visual Injury Ratings - 31 DAA, ORYSP ([8]; 560 g ae/ha in-water): 0%
Percent (%) Visual Injury Ratings - 31 DAA, ORYSP ([8]; 1120 g ae/ha in-water): 0%
pest or weed control at 280 g/ha [5]: 7%
pest or weed control at 560 g/ha [5]: 53%
pest or weed control at 1120 g/ha [5]: 59%
pest or weed control at 280 g/ha [6]: 10%
pest or weed control at 560 g/ha [6]: 18%
pest or weed control at 1120 g/ha [6]: 23%
pest or weed control at 280 g/ha [7]: 17%
pest or weed control at 560 g/ha [7]: 4%
pest or weed control at 1120 g/ha [7]: 5%

O=C(O)c1nc(Cl)ccc1Cl [clopyralid, 3,6-dichloro-2-pyridinecarboxylic acid]
efficacy on several commercially relevant weeds [9]: highly efficacious
crop safety exhibited by rice (rice; [14]): little to no crop injury

Nc1c(Cl)c(F)nc(OCC(=O)O)c1Cl [Fluroxypyr acid, 2-[(4-amino-3,5-dichloro-6-fluoro-2-pyridinyl)oxy]-acetic acid]
efficacy on several commercially relevant weeds [9]: highly efficacious
crop safety exhibited by rice (rice; in vivo): little to no crop injury
pest or weed control at 280 g/ha [5, 11]: 100%
pest or weed control at 1120 g/ha [5, 13]: 100%
pest or weed control at 280 g/ha [6, 11]: 98%
pest or weed control at 1120 g/ha [6, 13]: 100%
pest or weed control at 280 g/ha [7, 11]: 27%
pest or weed control at 560 g/ha [7, 12]: 28%
pest or weed control at 1120 g/ha [7, 13]: 45%

O=C(O)COc1nc(Cl)c(Cl)cc1Cl [triclopyr, 2-[(3,5,6-trichloro-2-pyridinyl)oxy]acetic acid]
efficacy on several commercially relevant weeds [9]: highly efficacious
crop safety exhibited by rice (rice; [14]): little to no crop injury
